The NIST ThermoML archive (doi:10.1021/je060271a)
Values joined by “and” are separate entries in the source; they are usually repeats but may differ in a detail not shown here. Equal entries are not always repeated. ± gives the expanded uncertainty stated by the source.

Settings: Liquid, Vibrating tube method

CCCCCC(=O)OCC(COC(=O)CCCCC)(COC(=O)CCCCC)COC(=O)CCCCC [pentaerythritol tetrahexanoate]
Settings	mass density
283.15 K, 30604 kPa	1021 ± 1.2 kg/m3
283.15 K, 30620 kPa	1020.9 ± 1.2 kg/m3
283.15 K, 30636 kPa	1020.9 ± 1.2 kg/m3
283.15 K, 30656 kPa	1021.1 ± 1.2 kg/m3
283.15 K, 30672 kPa	1020.9 ± 1.2 kg/m3
283.15 K, 30688 kPa	1021 ± 1.2 kg/m3
283.15 K, 30708 kPa	1020.9 ± 1.2 kg/m3
283.15 K, 30724 kPa	1021 ± 1.2 kg/m3
283.15 K, 30740 kPa	1021 ± 1.2 kg/m3
283.15 K, 30757 kPa	1021 ± 1.2 kg/m3
283.15 K, 30777 kPa	1020.9 ± 1.2 kg/m3
283.15 K, 30793 kPa	1021.1 ± 1.2 kg/m3
283.15 K, 30809 kPa	1021 ± 1.2 kg/m3
283.15 K, 30829 kPa	1021 ± 1.2 kg/m3
283.15 K, 30846 kPa	1021.1 ± 1.2 kg/m3
283.15 K, 30882 kPa	1021 ± 1.2 kg/m3
283.15 K, 30934 kPa	1021.1 ± 1.2 kg/m3
283.15 K, 30951 kPa	1021.1 ± 1.2 kg/m3
283.15 K, 30967 kPa	1021.1 ± 1.2 kg/m3
283.15 K, 30987 kPa	1021 ± 1.2 kg/m3
283.15 K, 31003 kPa	1021.3 ± 1.2 kg/m3
283.15 K, 31020 kPa	1021.2 ± 1.2 kg/m3
283.15 K, 31040 kPa	1021.1 ± 1.2 kg/m3
283.15 K, 31056 kPa	1021.2 ± 1.2 kg/m3
283.15 K, 31073 kPa	1021.1 ± 1.2 kg/m3
283.15 K, 31093 kPa	1021.1 ± 1.2 kg/m3
283.15 K, 31110 kPa	1021.1 ± 1.2 kg/m3
283.15 K, 31127 kPa	1021.2 ± 1.2 kg/m3
283.15 K, 31147 kPa	1021.2 ± 1.2 kg/m3
283.15 K, 31164 kPa	1021.2 ± 1.2 kg/m3
283.15 K, 31180 kPa	1021.2 ± 1.2 kg/m3
283.15 K, 31201 kPa	1021.3 ± 1.2 kg/m3
283.15 K, 31217 kPa	1021.3 ± 1.2 kg/m3
283.15 K, 31234 kPa	1021.3 ± 1.2 kg/m3
283.15 K, 31254 kPa	1021.3 ± 1.2 kg/m3
283.15 K, 31272 kPa	1021.2 ± 1.2 kg/m3
283.15 K, 31289 kPa	1021.2 ± 1.2 kg/m3
283.15 K, 31306 kPa	1021.2 ± 1.2 kg/m3
283.15 K, 31327 kPa	1021.3 ± 1.2 kg/m3
283.15 K, 31343 kPa	1021.3 ± 1.2 kg/m3
283.15 K, 31361 kPa	1021.3 ± 1.2 kg/m3
283.15 K, 31378 kPa	1021.3 ± 1.2 kg/m3
283.15 K, 31398 kPa	1021.4 ± 1.2 kg/m3
283.15 K, 31415 kPa	1021.3 ± 1.2 kg/m3
283.15 K, 31432 kPa	1021.4 ± 1.2 kg/m3
283.15 K, 31453 kPa	1021.5 ± 1.2 kg/m3
283.15 K, 31470 kPa	1021.4 ± 1.2 kg/m3
283.15 K, 31488 kPa	1021.5 ± 1.2 kg/m3
283.15 K, 31509 kPa	1021.5 ± 1.2 kg/m3
283.15 K, 31528 kPa	1021.5 ± 1.2 kg/m3
283.15 K, 31545 kPa	1021.6 ± 1.2 kg/m3
283.15 K, 31562 kPa	1021.5 ± 1.2 kg/m3
283.15 K, 31583 kPa	1021.3 ± 1.2 kg/m3
283.15 K, 31600 kPa	1021.4 ± 1.2 kg/m3
283.15 K, 31618 kPa	1021.5 ± 1.2 kg/m3
283.15 K, 31639 kPa	1021.5 ± 1.2 kg/m3
283.15 K, 31656 kPa	1021.5 ± 1.2 kg/m3
283.15 K, 31674 kPa	1021.5 ± 1.2 kg/m3
283.15 K, 31691 kPa	1021.5 ± 1.2 kg/m3
283.15 K, 31712 kPa	1021.6 ± 1.2 kg/m3
283.15 K, 31730 kPa	1021.4 ± 1.2 kg/m3
283.15 K, 31748 kPa	1021.6 ± 1.2 kg/m3
283.15 K, 31770 kPa	1021.4 ± 1.2 kg/m3
283.15 K, 31787 kPa	1021.5 ± 1.2 kg/m3
283.15 K, 31805 kPa	1021.5 ± 1.2 kg/m3
283.15 K, 31823 kPa	1021.6 ± 1.2 kg/m3
283.15 K, 31845 kPa	1021.5 ± 1.2 kg/m3
283.15 K, 31863 kPa	1021.6 ± 1.2 kg/m3
283.15 K, 31881 kPa	1021.5 ± 1.2 kg/m3
283.15 K, 31902 kPa	1021.5 ± 1.2 kg/m3
283.15 K, 31920 kPa	1021.4 ± 1.2 kg/m3
283.15 K, 31942 kPa	1021.6 ± 1.2 kg/m3
283.15 K, 31960 kPa	1021.6 ± 1.2 kg/m3
283.15 K, 31978 kPa	1021.7 ± 1.2 kg/m3
283.15 K, 31996 kPa	1021.6 ± 1.2 kg/m3
283.15 K, 32019 kPa	1021.5 ± 1.2 kg/m3
283.15 K, 32037 kPa	1021.7 ± 1.2 kg/m3
283.15 K, 32055 kPa	1021.8 ± 1.2 kg/m3
283.15 K, 32077 kPa	1021.7 ± 1.2 kg/m3
283.15 K, 32096 kPa	1021.6 ± 1.2 kg/m3
283.15 K, 32115 kPa	1021.8 ± 1.2 kg/m3
283.15 K, 32133 kPa	1021.7 ± 1.2 kg/m3
283.15 K, 32156 kPa	1021.6 ± 1.2 kg/m3
283.15 K, 32349 kPa	1021.8 ± 1.2 kg/m3
283.15 K, 32369 kPa	1021.8 ± 1.2 kg/m3
283.15 K, 32386 kPa	1021.7 ± 1.2 kg/m3
283.15 K, 32399 kPa	1021.8 ± 1.2 kg/m3
283.15 K, 32420 kPa	1021.7 ± 1.2 kg/m3
283.15 K, 32436 kPa	1021.9 ± 1.2 kg/m3
283.15 K, 32455 kPa	1022 ± 1.2 kg/m3
283.15 K, 32472 kPa	1022 ± 1.2 kg/m3
283.15 K, 32488 kPa	1021.9 ± 1.2 kg/m3
283.15 K, 32506 kPa	1021.9 ± 1.2 kg/m3
283.15 K, 32526 kPa	1021.9 ± 1.2 kg/m3
283.15 K, 32543 kPa	1022 ± 1.2 kg/m3
283.15 K, 32560 kPa	1021.9 ± 1.2 kg/m3
283.15 K, 32575 kPa	1022 ± 1.2 kg/m3
283.15 K, 32587 kPa	1021.9 ± 1.2 kg/m3
283.15 K, 32601 kPa	1022 ± 1.2 kg/m3
283.15 K, 32613 kPa	1021.9 ± 1.2 kg/m3
283.15 K, 32626 kPa	1021.9 ± 1.2 kg/m3
283.15 K, 32639 kPa	1022 ± 1.2 kg/m3
283.15 K, 32654 kPa	1022 ± 1.2 kg/m3
283.15 K, 32665 kPa	1022 ± 1.2 kg/m3
283.15 K, 32672 kPa	1022 ± 1.2 kg/m3
283.15 K, 32680 kPa	1022 ± 1.2 kg/m3
283.15 K, 32688 kPa	1022.1 ± 1.2 kg/m3
283.15 K, 32694 kPa	1022 ± 1.2 kg/m3
283.15 K, 32703 kPa	1022 ± 1.2 kg/m3
283.15 K, 32708 kPa	1022.1 ± 1.2 kg/m3
283.15 K, 32709 kPa	1022 ± 1.2 kg/m3
283.15 K, 32711 kPa	1021.8 ± 1.2 kg/m3
283.15 K, 32715 kPa	1022 ± 1.2 kg/m3
283.15 K, 32718 kPa	1022 ± 1.2 kg/m3
283.15 K, 32720 kPa	1022 ± 1.2 kg/m3 and 1022.1 ± 1.2 kg/m3
283.15 K, 32723 kPa	1021.9 ± 1.2 kg/m3 and 1022 ± 1.2 kg/m3
283.15 K, 32725 kPa	1021.9 ± 1.2 kg/m3
283.15 K, 32726 kPa	1022 ± 1.2 kg/m3
283.15 K, 32853 kPa	1022 ± 1.2 kg/m3
283.15 K, 32977 kPa	1022.2 ± 1.2 kg/m3
283.15 K, 32981 kPa	1022.1 ± 1.2 kg/m3
283.15 K, 32985 kPa	1022.1 ± 1.2 kg/m3
283.15 K, 32990 kPa	1022.1 ± 1.2 kg/m3
283.15 K, 32992 kPa	1022.2 ± 1.2 kg/m3
283.15 K, 32997 kPa	1022.1 ± 1.2 kg/m3
283.15 K, 33001 kPa	1022.1 ± 1.2 kg/m3
283.15 K, 33005 kPa	1022.2 ± 1.2 kg/m3
283.16 K, 90.5 kPa	1004.1 ± 1.2 kg/m3
283.16 K, 90.7 kPa	1004.2 ± 1.2 kg/m3
283.16 K, 90.8 kPa	1004.2 ± 1.2 kg/m3
283.16 K, 90.9 kPa	1004.1 ± 1.2 kg/m3 and 1004.3 ± 1.2 kg/m3
283.16 K, 91.2 kPa	1004.3 ± 1.2 kg/m3 and 1004.2 ± 1.2 kg/m3
283.16 K, 91.4 kPa	1004.1 ± 1.2 kg/m3 and 1004.2 ± 1.2 kg/m3 and 1004 ± 1.2 kg/m3
283.16 K, 91.5 kPa	1004.1 ± 1.2 kg/m3 and 1004.2 ± 1.2 kg/m3
283.16 K, 91.7 kPa	1004.2 ± 1.2 kg/m3 and 1004.1 ± 1.2 kg/m3
283.16 K, 91.9 kPa	1004.2 ± 1.2 kg/m3
283.16 K, 92.1 kPa	1004.3 ± 1.2 kg/m3
283.16 K, 92.2 kPa	1004.2 ± 1.2 kg/m3 and 1004.1 ± 1.2 kg/m3
283.16 K, 92.4 kPa	1004.2 ± 1.2 kg/m3
283.16 K, 92.6 kPa	1004.2 ± 1.2 kg/m3
283.16 K, 92.8 kPa	1004.1 ± 1.2 kg/m3 and 1004.2 ± 1.2 kg/m3 and 1004 ± 1.2 kg/m3
283.16 K, 93.1 kPa	1004.2 ± 1.2 kg/m3 and 1004.1 ± 1.2 kg/m3
283.16 K, 93.3 kPa	1004.1 ± 1.2 kg/m3 and 1004.2 ± 1.2 kg/m3
283.16 K, 93.6 kPa	1004.2 ± 1.2 kg/m3
283.16 K, 93.8 kPa	1004.1 ± 1.2 kg/m3 and 1004.2 ± 1.2 kg/m3
